The source of these data is patent US20240075017A1 (priority 2021, published 2024).

“Also recorded” adds a separate entry of the source.

One assay has as its system SARS-CoV-2-GFP. It counts as cell-based.
Assay [1] concerns wild-type (wt) SARS-CoV-2. Briefly: Plaque assay of released viral progeny from pre-treated Vero E6 cells. It counts as cell-based. Particulars: 6 h pre-treatment, range of concentrations, MOI 0.01, 48 hours post-infection.
The next assay concerns NHBE cells. The class given is cell-based, human.
Assay [2] deals with SARS-CoV-2 (strain MUC-IMB-1). Briefly: Viral nucleoprotein (NP) western blot in A549-ACE2 cells. It counts as cell-based.
Assay [3] concerns SARS-CoV-2 (strain MUC-IMB-1). Put plainly: NP immunofluorescence in primary normal human bronchial cells (NHBE) ex vivo. The class given is cell-based. Particulars: 6 h pre-treatment, MOI 3, 24 hours post-infection.
For another assay, the system named is SARS-CoV. Particulars: described previously (ref. 70); cited from earlier work.
A further assay has as its system IP-10. Put plainly: Secreted IP10 by ELISA in NHBEs. It counts as cell-based, human. In general terms: ELISA stands for enzyme-linked immunosorbent assay.
In the next assay the test system is IL6. The class given is cell-based, human. Particulars: NHBEs, 0.75 μM, mock-, SARS-CoV or SARS-CoV-2 infected, 24 h post-infection.
The subject of assay [4] is SARS-CoV-2 (strain MUC-IMB-1). It counts as cell-based.
For assay [5], the system named is SARS-CoV (strain Frankfurt 1). It counts as cell-based. The conditions noted are these: A549-ACE2 cells, 6 h pre-treatment, 24 hours infection.

With `Cc1nc2ccc(-c3c(Nc4ccccn4)[nH]c4c(-c5ccccc5)c(-c5ccccc5)nn4c3=O)cc2s1` [MAT2A inhibitor 1], in the assay on SARS-CoV-2-GFP, the “antiviral activity: growth of SARS-CoV-2-GFP reporter virus” value (“antiviral activity: growth” for short) is recorded as “have antiviral activity against SARS-CoV-2”.

For the compound `NC(CCSCCCCC(=O)O)C(=O)O` (racemic) [CBHcy, S-(4-Carboxybutyl)-D,L-homocysteine], in the assay with SARS-CoV-2-GFP, the “antiviral activity: growth” value was “have antiviral activity against SARS-CoV-2”. Further, in assay [1], the “released viral progeny in the supernatant by plaque assay” value (shortened to “released viral progeny”) is “dose-dependent suppression of the wt SARS-CoV-2”.

`CNc1ccc(/C=C/c2c(F)cccc2Cl)cc1` [FIDAS-5, (E)-4-(2-chloro-6-fluorostyryl)-N-methylaniline]: in the assay with SARS-CoV-2-GFP, the “antiviral activity of co-treatment with DZNep” value is reported as “synergistic antiviral activity” and the “antiviral activity: growth” value is reported as “have antiviral activity against SARS-CoV-2”. Also, in [1], the “released viral progeny” value was “dose-dependent suppression of the wt SARS-CoV-2”.

Take `Nc1nccc2c1ncn2[C@@H]1C=C(CO)[C@@H](O)[C@H]1O` [DZNep, 3-deazaneplanocin A]: in the assay with NHBE cells, the “abundance of innate immunity related factors (e.g. IL1RN, C3 and TNFAIP3/A20)” value is listed as “DZNep-dependent changes in abundance”; the “factors counteracting fibrotic processes (e.g. ELAFIN, SLPI and ECM1)” value was “up-regulation of factors counteracting fibrotic processes”; the “factors of extrinsic coagulation cascade (e.g. F3 and TFPI2) and plasminogen activation system (e.g. PAI1, PLAT, PLAU)” value was “reduction of factors of extrinsic coagulation cascade”; the “pulmonary fibrosis biomarkers (e.g. COL4A1, MMP14 and SERPINE1)” value is reported as “reduction of pulmonary fibrosis biomarkers”. Further, the “antiviral activity: growth” value in the assay with SARS-CoV-2-GFP is “have antiviral activity against SARS-CoV-2; also recorded: particularly strong antiviral efficacy”. The “role of STAT1 dependent interferon response in SARS-CoV-2 inhibition by the compound” value in the assay with SARS-CoV-2-GFP (STAT1 KO vs NTC A549-ACE2 cells, 6 h pre-treatment with DZNep and/or interferon alpha) was “does not play a major role in SARS-CoV-2 inhibition in vitro”. The “virus nucleoprotein (NP) expression by western blot” value in [2] was “potent antiviral effect against SARS-CoV-2”. In addition, the “inhibition of SARS-CoV-2 in primary human ex-vivo infection model” value in assay [3] was “potent inhibitor of SARS-CoV-2”. For the same compound, in the assay with SARS-CoV, the “antiviral activity against SARS-CoV in an in vivo infection model” value is listed as “did not show antiviral activity against SARS-CoV”. Further, the “IP-10 secretion by ELISA” value in the assay with IP-10 is “IP-10 secretion was enhanced”. Moreover, in the assay with IL6, the “IL6 secretion/expression by ELISA” value is recorded as “significantly reduced IL6 expression in all tested conditions”. Besides, the “expression of viral proteins (SARS-CoV-2) by mass spectrometry” value in [4] is reported as “clear reduction”. For the same compound, the “abundance changes of NP and spike (S), SARS-CoV-2” value in [4] (A549-ACE2 (0.75 μM, 24 h) and NHBEs (1.5 μM, 36 h)) is given as “DZNep-dependent inhibition of SARS-CoV-2”. Besides, the “released viral progeny” value in assay [1] was “dose-dependent suppression of the wt SARS-CoV-2”. In addition, in assay [5], the “antiviral effect against SARS-CoV, expression of viral protein N” value was “do not observe an antiviral effect”.

As to `CCN(CCO)CCCC(C)Nc1ccnc2cc(Cl)ccc12` (stereo not drawn) [Hydroxychloroquine], the “influence of DZNep co-treatment on the antiviral efficacy of the compound” value (from here on “influence of DZNep co-treatment”) in the assay with SARS-CoV-2-GFP is “does not negatively influence the antiviral efficacy”.

For the compound IFN-α, in the assay with SARS-CoV-2-GFP, the “synergy of combination with DZNep (combination index, CI)” value is reported as “strong synergism”.

As for `CN(C)CCc1nnc2cc(-c3ccccc3)c3cc(Cl)ccc3n12` [PF-9366, 2-(7-Chloro-5-phenyl-[1,2,4]triazolo[4,3-a]quinolin-1-yl)-N,N-dimethylethan-1-amine], the “antiviral activity: growth” value with SARS-CoV-2-GFP is listed as “have antiviral activity against SARS-CoV-2”.

For the compound `Nc1ncnc2c1ncn2C[C@@H](O)[C@@H](O)C(=O)O` [DER, D-eritadenine], the “antiviral activity: growth” value in the assay on SARS-CoV-2-GFP was “have antiviral activity against SARS-CoV-2”.

Turning to `CNC(=O)[C@@H](NC(=O)[C@H](CC(C)C)[C@H](O)C(=O)NO)C(C)(C)C` [marimastat], the “influence of DZNep co-treatment” value in the assay with SARS-CoV-2-GFP is on record as “does not negatively influence the antiviral efficacy”.

On to `CC(C)NC[C@@H](C(=O)N1CCN(c2ncnc3c2[C@H](C)C[C@H]3O)CC1)c1ccc(Cl)cc1` [ipatasertib], for which, in the assay with SARS-CoV-2-GFP, the “influence of DZNep co-treatment” value is “does not negatively influence the antiviral efficacy”.
